This note sets out measurements from US20250313572A1, “MACROCYCLIC MCL-1 INHIBITORS AND METHODS OF USE” (AbbVie Inc., priority 2017, published 2025).

The structures appear in SMILES notation. Where two headings read alike, the source gives them in different places.

The target in one assay is GST-MCL-1 (Homo sapiens, UniProt Q07820). Put plainly: TR-FRET MCL-1 binding assay (competition with probe F-Bak). In a few lines: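 Displacement of F-Bak from GST-MCL-1 is detected by time-resolved FRET with a Tb-labelled anti-GST antibody, with excitation 340/35 nm and emission 520/525 and 495/510 nm, after 2 hours at room temperature. Compounds were titrated in 11 three-fold steps starting at 25 μM final, in buffer alone or in 10% HS.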
(TR-FRET usually uses a lanthanide donor and a delayed reading to cut background.)

Assay [1] relates to NCI-H929 human multiple myeloma tumor cell line. Description: NCI-H929 cell viability assay (CellTiter-Glo, 24 hours). The assay is classed as cell-based. The note with it: Homo sapiens, NCI-H929, 24 h, read-out: H929 Viability IC50 (μM, 10% FBS), 10% FBS, 24 hours of compound treatment.
The subject of assay [2] is AMO-1 human multiple myeloma tumor cell line. Description: AMO-1 cell viability assay (CellTiter-Glo, 24 hours). It counts as cell-based. The note with it: Homo sapiens, AMO1, 24 h, read-out: AMO-1 Viability IC50 (μM, 10% FBS), 10% FBS, 24 hours of compound treatment. On the technique in general: ATP-based viability assays read luminescence as a measure of living cells.
The mark [3] stands for this setting: MCL-1 Binding Ki (nM, 10% HS), in the presence of 10% HS (human serum).
Setting [4] is: without HS, read-out: MCL-1 Binding Ki.

Sequence of GST-MCL-1 (Q07820 whole entry): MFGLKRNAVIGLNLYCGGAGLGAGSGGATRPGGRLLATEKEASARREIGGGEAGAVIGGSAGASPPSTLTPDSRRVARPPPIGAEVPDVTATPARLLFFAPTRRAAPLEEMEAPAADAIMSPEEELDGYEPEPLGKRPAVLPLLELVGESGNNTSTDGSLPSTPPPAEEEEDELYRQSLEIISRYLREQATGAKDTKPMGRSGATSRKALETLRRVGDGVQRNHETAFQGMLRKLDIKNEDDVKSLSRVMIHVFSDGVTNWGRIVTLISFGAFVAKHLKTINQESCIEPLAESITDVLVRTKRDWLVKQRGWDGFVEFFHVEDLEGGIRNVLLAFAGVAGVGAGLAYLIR

On to `COCCOCCOCCOCCOC1(c2nccc(COc3ccc4cc3C[C@H](C(=O)O)Oc3ncnc5sc(-c6ccc(F)cc6)c(c35)-c3c(C)c(Cl)c(c(Cl)c3C)O[C@H](CN3CCN(C)CC3)CO4)n2)CCC1` [Example 64, (7R,16R)-19,23-dichloro-1-(4-fluorophenyl)-20,22-dimethyl-16-[(4-methylpiperazin-1-yl)methyl]-10-[(2-{1-[(2,5,8,11-tetraoxatridecan-13-yl)oxy]cyclobutyl}pyrimidin-4-yl)methoxy]-7,8,15,16-tetrahydro-18,21-etheno-9,13-(metheno)-6,14,17-trioxa-2-thia-3,5-diazacyclononadeca[1,2,3-cd]indene-7-carboxylic Acid], for which the Ki on GST-MCL-1 (setting [3]) was determined as 0.167 nM; on GST-MCL-1 (setting [4]) it was 0.038 nM. In addition, the IC50 is 0.00243 µM in assay [1] and 0.00163 µM in assay [2].

Turning to `Cc1c(Cl)c2c(Cl)c(C)c1-c1c(-c3ccc(F)cc3)sc3ncnc(c13)O[C@@H](C(=O)O)Cc1cc(ccc1OCc1ccnc(N3CC(C(CO)CO)C3)n1)OC[C@@H](CN1CCN(C)CC1)O2` [Example 65, (7R,16R)-19,23-dichloro-10-({2-[3-(1,3-dihydroxypropan-2-yl)azetidin-1-yl]pyrimidin-4-yl}methoxy)-1-(4-fluorophenyl)-20,22-dimethyl-16-[(4-methylpiperazin-1-yl)methyl]-7,8,15,16-tetrahydro-18,21-etheno-9,13-(metheno)-6,14,17-trioxa-2-thia-3,5-diazacyclononadeca[1,2,3-cd]indene-7-carboxylic Acid], the inhibition constant Ki at GST-MCL-1 (setting [3]) was 0.65 nM; at GST-MCL-1 (setting [4]), 0.195 nM. The half-inhibitory concentration (IC50) came out at 0.0596 µM in assay [1] and 0.0209 µM in assay [2].

On to `COCCOCCOCCOCCOCCO[C@H]1CC[C@H](c2nccc(COc3ccc4cc3C[C@H](C(=O)O)Oc3ncnc5sc(-c6ccc(F)cc6)c(c35)-c3c(C)c(Cl)c(c(Cl)c3C)O[C@H](CN3CCN(C)CC3)CO4)n2)CC1` [Example 66, (7R,16R)-19,23-dichloro-1-(4-fluorophenyl)-20,22-dimethyl-16-[(4-methylpiperazin-1-yl)methyl]-10-[(2-{(1r,4r)-4-[(2,5,8,11,14-pentaoxahexadecan-16-yl)oxy]cyclohexyl}pyrimidin-4-yl)methoxy]-7,8,15,16-tetrahydro-18,21-etheno-13,9-(metheno)-6,14,17-trioxa-2-thia-3,5-diazacyclononadeca[1,2,3-cd]indene-7-carboxylic Acid], for which the Ki on GST-MCL-1 (setting [3]) came to 0.119 nM; at GST-MCL-1 (setting [4]), 0.015 nM. Moreover, the concentration for half-maximal inhibition (IC50) worked out at 0.00121 µM in assay [1] and 0.000876 µM in assay [2].

For the compound `COCCOCCOCCOCCOCCOCCO[C@H]1CC[C@H](c2nccc(COc3ccc4cc3C[C@H](C(=O)O)Oc3ncnc5sc(-c6ccc(F)cc6)c(c35)-c3c(C)c(Cl)c(c(Cl)c3C)O[C@H](CN3CCN(C)CC3)CO4)n2)CC1` [Example 67, (7R,16R)-19,23-dichloro-1-(4-fluorophenyl)-10-[(2-{(1r,4r)-4-[(2,5,8,11,14,17-hexaoxanonadecan-19-yl)oxy]cyclohexyl}pyrimidin-4-yl)methoxy]-20,22-dimethyl-16-[(4-methylpiperazin-1-yl)methyl]-7,8,15,16-tetrahydro-18,21-etheno-13,9-(metheno)-6,14,17-trioxa-2-thia-3,5-diazacyclononadeca[1,2,3-cd]indene-7-carboxylic Acid], the figures for the inhibitory constant (Ki) on GST-MCL-1 (setting [3]) and at GST-MCL-1 (setting [4]) were 0.073 nM and 0.016 nM, respectively. The half-inhibitory concentration (IC50) was determined as 0.00176 µM in assay [1] and 0.0011 µM in assay [2].

On to `COCCOCCOCCOC[C@@H]1CN(c2nccc(COc3ccc4cc3C[C@H](C(=O)O)Oc3ncnc5sc(-c6ccc(F)cc6)c(c35)-c3c(C)c(Cl)c(c(Cl)c3C)O[C@H](CN3CCN(C)CC3)CO4)n2)CCO1` [Example 68, (7R,16R)-19,23-dichloro-1-(4-fluorophenyl)-20,22-dimethyl-16-[(4-methylpiperazin-1-yl)methyl]-10-({2-[(2S)-2-(2,5,8,11-tetraoxadodecan-1-yl)morpholin-4-yl]pyrimidin-4-yl}methoxy)-7,8,15,16-tetrahydro-18,21-etheno-13,9-(metheno)-6,14,17-trioxa-2-thia-3,5-diazacyclononadeca[1,2,3-cd]indene-7-carboxylic Acid], for which the results for the Ki on GST-MCL-1 (setting [3]) and at GST-MCL-1 (setting [4]) were 0.209 nM and 0.031 nM, respectively. Further, the 50% inhibitory concentration (IC50) came out at 0.000938 µM in assay [1] and 0.000426 µM in assay [2].

As for `COCCOCCOCCOCCO[C@H]1CC[C@H](c2nccc(COc3ccc4cc3C[C@H](C(=O)O)Oc3ncnc5sc(-c6ccc(F)cc6)c(c35)-c3c(C)c(Cl)c(c(Cl)c3C)O[C@H](CN3CCN(C)CC3)CO4)n2)CC1` [Example 69, (7R,16R)-19,23-dichloro-1-(4-fluorophenyl)-20,22-dimethyl-16-[(4-methylpiperazin-1-yl)methyl]-10-[(2-{(1r,4r)-4-[(2,5,8,11-tetraoxatridecan-13-yl)oxy]cyclohexyl}pyrimidin-4-yl)methoxy]-7,8,15,16-tetrahydro-18,21-etheno-13,9-(metheno)-6,14,17-trioxa-2-thia-3,5-diazacyclononadeca[1,2,3-cd]indene-7-carboxylic Acid], the values for the Ki at GST-MCL-1 (setting [3]) and at GST-MCL-1 (setting [4]) were 0.053 nM and 0.012 nM, respectively. In addition, the IC50 in assay [1] came to 0.000615 µM; in assay [2], 0.000302 µM.

`COCCOCCOCCO[C@H]1CC[C@@H](c2nccc(COc3ccc4cc3C[C@H](C(=O)O)Oc3ncnc5sc(-c6ccc(F)cc6)c(c35)-c3c(C)c(Cl)c(c(Cl)c3C)O[C@H](CN3CCN(C)CC3)CO4)n2)CC1` [Example 70, (7R,16R)-19,23-dichloro-1-(4-fluorophenyl)-10-({2-[(1s,4s)-4-{2-[2-(2-methoxyethoxy)ethoxy]ethoxy}cyclohexyl]pyrimidin-4-yl}methoxy)-20,22-dimethyl-16-[(4-methylpiperazin-1-yl)methyl]-7,8,15,16-tetrahydro-18,21-etheno-13,9-(metheno)-6,14,17-trioxa-2-thia-3,5-diazacyclononadeca[1,2,3-cd]indene-7-carboxylic Acid]: the Ki was 0.083 nM at GST-MCL-1 (setting [3]) and 0.012 nM at GST-MCL-1 (setting [4]). Further, the figures for the IC50 in assay [1] and in assay [2] were 0.000489 µM and 0.000263 µM, respectively.

As for `Cc1c(Cl)c2c(Cl)c(C)c1-c1c(-c3ccc(F)cc3)sc3ncnc(c13)O[C@@H](C(=O)O)Cc1cc(ccc1OCc1ccnc(-c3ccc(OCCN4CCP(C)(=O)CC4)cc3)n1)OC[C@@H](CN1CCN(C)CC1)O2` [Example 71, (7R,16R)-19,23-dichloro-1-(4-fluorophenyl)-20,22-dimethyl-10-[(2-{4-[2-(4-methyl-4-oxo-1, 4λ^5-azaphosphinan-1-yl)ethoxy]phenyl}pyrimidin-4-yl)methoxy]-16-[(4-methylpiperazin-1-yl)methyl]-7,8,15,16-tetrahydro-18,21-etheno-13,9-(metheno)-6,14,17-trioxa-2-thia-3,5-diazacyclononadeca[1,2,3-cd]indene-7-carboxylic Acid], the inhibition constant Ki came to 0.106 nM on GST-MCL-1 (setting [3]) and 0.039 nM at GST-MCL-1 (setting [4]). Besides, the IC50 turned out to be 0.00851 µM in assay [1] and 0.00468 µM in assay [2].

Consider `Cc1c(Cl)c2c(Cl)c(C)c1-c1c(-c3ccc(F)cc3)sc3ncnc(c13)O[C@@H](C(=O)O)Cc1cc(ccc1OCc1ccnc(C3(COCCOCCOC[C@H]4COCCO4)CCC3)n1)OC[C@@H](CN1CCN(C)CC1)O2` [Example 72, (7R,16R)-19,23-dichloro-10-{[2-(1-{[2-(2-{[(2R)-1,4-dioxan-2-yl]methoxy}ethoxy)ethoxy]methyl}cyclobutyl)pyrimidin-4-yl]methoxy}-1-(4-fluorophenyl)-20,22-dimethyl-16-[(4-methylpiperazin-1-yl)methyl]-7,8,15,16-tetrahydro-18,21-etheno-13,9-(metheno)-6,14,17-trioxa-2-thia-3,5-diazacyclononadeca[1,2,3-cd]indene-7-carboxylic Acid], for which the figures for the inhibition constant (Ki) at GST-MCL-1 (setting [3]) and at GST-MCL-1 (setting [4]) were 0.184 nM and 0.064 nM, respectively. Moreover, the 50% inhibitory concentration (IC50) in assay [1] is 0.000743 µM; in assay [2] it was 0.000331 µM.

As to `Cc1c(Cl)c2c(Cl)c(C)c1-c1c(-c3ccc(F)cc3)sc3ncnc(c13)O[C@@H](C(=O)O)Cc1cc(ccc1OCc1ccnc(C3CCS(=O)(=O)C3)n1)OC[C@@H](CN1CCN(C)CC1)O2` (stereo partly drawn) [Example 73, (7R,16R)-19,23-dichloro-10-{[2-(1,1-dioxo-1λ^6-thiolan-3-yl)pyrimidin-4-yl]methoxy}-1-(4-fluorophenyl)-20,22-dimethyl-16-[(4-methylpiperazin-1-yl)methyl]-7,8,15,16-tetrahydro-18,21-etheno-9,13-(metheno)-6,14,17-trioxa-2-thia-3,5-diazacyclononadeca[1,2,3-cd]indene-7-carboxylic Acid], the values for the Ki at GST-MCL-1 (setting [3]) and on GST-MCL-1 (setting [4]) were 0.208 nM and 0.037 nM, respectively. For the same compound, the results for the IC50 in assay [1] and in assay [2] were 0.00556 µM and 0.00262 µM, respectively.

On to `COCCOCCOCCOCCOCCOCCOC1(c2nccc(COc3ccc4cc3C[C@H](C(=O)O)Oc3ncnc5sc(-c6ccc(F)cc6)c(c35)-c3c(C)c(Cl)c(c(Cl)c3C)O[C@H](CN3CCN(C)CC3)CO4)n2)CCCC1` [Example 74, (7R,16R)-19,23-dichloro-1-(4-fluorophenyl)-10-[(2-{1-[(2,5,8,11,14,17-hexaoxanonadecan-19-yl)oxy]cyclopentyl}pyrimidin-4-yl)methoxy]-20,22-dimethyl-16-[(4-methylpiperazin-1-yl)methyl]-7,8,15,16-tetrahydro-18,21-etheno-9,13-(metheno)-6,14,17-trioxa-2-thia-3,5-diazacyclononadeca[1,2,3-cd]indene-7-carboxylic Acid], for which the Ki on GST-MCL-1 (setting [3]) stood at 0.12 nM; at GST-MCL-1 (setting [4]), 0.083 nM. The figures for the IC50 in assay [1] and in assay [2] were 0.00237 µM and 0.00153 µM, respectively.

For orientation: Ki means a measure of affinity in units of concentration, obtained from inhibition or displacement. The IC50 is the concentration needed to halve the response being measured.
